The results in this text go back to patent US11192893B2, “Pyrazoloquinazolinone antitumor agents” (The Rockefeller University, priority 2017, dated 2021).

Read-outs that look alike come from different tables or passages of the source.

In assay [1] the target is human cytoplasmic dynein 2 (Homo sapiens (Human), UniProt Q8NCM8). Nature of the assay: microtubule gliding assay with GFP-dynein 2. The format is biochemical. As to the method:
Compounds were tested employing a microtubule gliding assay, a standard biochemical assay for motor proteins. […] We purified an N-terminally GFP-tagged motor-domain construct of dynein 2 using an insect cell expression system [Schmidt et al., Nature. 2015; 518(7539):435-8]. The GFP tag in this construct allowed immobilization on passivated glass coverslips used in microtubule gliding assays. GFP-dynein 2, in the presence of ATP (1 mM), moved microtubules with a velocity of 128±14 nm/s. The mean velocity of dynein 2-driven microtubule gliding in the presence of control solvent (2% DMSO) and test compounds at 20 pM were compared. All motility assays were run at 1 mM MgATP, 0.05 mg/mL casein, and 2% DMSO. Representative examples of compounds of the invention provided the results shown as “Gliding velocity in nm/s” in Table 1. For some compounds, dose-dependent analyses were performed, and the results are shown as “IC50 in μM” in Table 1.
Microtubule surface gliding assay. Cytoplasmic dynein was purified from bovine brains as described by Bingham et al. [Methods Enzymol. 298, 171 (1998)]. K560, a 560-amino acid N-terminal fragment of human conventional kinesin (kinesin-1) with a C-terminal His-tag, was expressed in bacteria and purifed as described by Woehlke et al., [Cell 90, 207 (1997)]. Motility assays were performed on a Zeiss Axiovert 200M wide-field microscope equipped with a Zeiss 100×/1.45 NA α-Plan-Fluar objective. Data were captured with an EM-CCD camera (iXon DU-897, Andor Technology) with a 0.3-second exposure time and frame rate of 0.5 second^−1. Microtubule gliding assays were performed as described by Kapoor and Mitchison [Proc. Natl. Acad. Sci. U.S.A 96, 9106 (1999)] with some modifications. An approximately 6-μL flow chamber was filled with motor protein (100 μg/mL dynein or 50 μg/mL K560) in motor dilution buffer (80 mM Pipes, 1 mM EGTA, 2 mM MgCl2, 2 mM DTT, 50 μM ATP, pH 6.8 with KOH). After a 2-minute incubation, excess protein was washed out with 20 μL of PEM80 buffer (80 mM Pipes, 1 mM EGTA, 2 mM MgCl2, pH 6.8 with KOH) and the surface was blocked against non-specific microtubule binding by filling the chamber with blocking protein (0.5 mg/mL α-casein for dynein experiments and 1 mg/mL BSA for K560 experiments) in motor dilution buffer. After 2 minutes the chamber was perfused with 18 μL of reaction mix (PEM80, 40 mM KC 1, blocking protein [1 mg/mL α-casein for dynein experiments; 1 mg/mL BSA for K560 experiments], 2 mM MgATP, 20 μM taxol, 0.1 μM rhodamine-labeled microtubules, oxygen depletion system [4 mM DTT, 2 mM glucose, 40 μg/mL glucose oxidase, 35 μg/mL catalase], 2.5% DMSO, and test compounds as appropriate). The flow chamber was then sealed with valap. After allowing the microtubules to bind to the surface for 5 minutes, the gliding microtubules were visualized by time-lapse fluorescence microscopy. Velocities were measured by kymography using Metamorph software (Molecular Devices), and the velocity for each microtubule was determined from the total distance during the time observed.
For washout experiments, the chamber was left unsealed after the initial reaction mix containing inhibitor was added. Microtubules were allowed to bind to the surface for 5 minutes, and then a time-lapse movie was acquired. The inhibitor was then washed out of the chamber by flowing in 20 μL of fresh reaction mix (PEM80, 40 mM KCl, 1 mg/mL α-casein, 2 mM MgATP, 20 μM taxol, oxygen depletion system, and 2.5% DMSO) without additional microtubules or inhibitor. The chamber was sealed, and additional time-lapse movies were acquired.

The subject of assay [2] is Hedgehog pathway activity. Nature of the assay: Shh-Light luciferase reporter assay of Hedgehog pathway activity (Shh-Light2 cells, SAG-stimulated). The format is cell-based. The gist of the method:
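NIH-3T3 cells stably carrying a Gli-site luciferase reporter (Shh-Light2) were switched to DMEM + 0.5% BCS with SAG (500 nM) and compound (three-fold dilutions from 20 μM; 0.2% DMSO control). After 28-32 hr of treatment, cells were lysed and firefly luciferase luminescence was read.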

In assay [3] the target is human dynein 1 (Homo sapiens (Human), UniProt Q14204). Nature of the assay: microtubule gliding assay with GFP-dynein 1. The assay is classed as biochemical. To be noted: washout. The text has this: To examine the inhibition of dynein 1 by compound 5 in vitro we generated recombinant human protein. We expressed and purified a GFP-tagged human dynein 1 (AA 1320-'16'16) construct similar to the one we used for GFP dynein 2. […] GFP-dynein 1 moves microtubules at 510±60 nm/s, a velocity expected based on studies of other mammalian dynein 1 homologs (n=7).
Microtubule surface gliding assay. Cytoplasmic dynein was purified from bovine brains as described by Bingham et al. [Methods Enzymol. 298, 171 (1998)]. K560, a 560-amino acid N-terminal fragment of human conventional kinesin (kinesin-1) with a C-terminal His-tag, was expressed in bacteria and purifed as described by Woehlke et al., [Cell 90, 207 (1997)]. Motility assays were performed on a Zeiss Axiovert 200M wide-field microscope equipped with a Zeiss 100×/1.45 NA α-Plan-Fluar objective. Data were captured with an EM-CCD camera (iXon DU-897, Andor Technology) with a 0.3-second exposure time and frame rate of 0.5 second^−1. […] After allowing the microtubules to bind to the surface for 5 minutes, the gliding microtubules were visualized by time-lapse fluorescence microscopy. Velocities were measured by kymography using Metamorph software (Molecular Devices), and the velocity for each microtubule was determined from the total distance during the time observed. […]

Assay [4] concerns dynein 1 construct with a mutation in the AAA3 domain (Walker A residue). Nature of the assay: ATPase activity of dynein 1 construct with AAA3 mutation. The format is biochemical. From the text:
ATPase activity at AAA1 is linked to individual steps of the motor, while the AAA3 site plays a regulatory role. Two lines of evidence indicate that compounds of the invention target the AAA1 site specifically. First, compound 5 inhibits the activity of a dynein 1 construct with a mutation in the AAA3 domain (Walker A residue). In this construct, the ATPase activity is expected to be mainly due to the AAA1 site. Second, the potency of inhibition of the AAA3 mutant is similar to that of the microtubule-stimulated ATPase rate. Sequence comparisons indicate that the AAA1 sites in dynein 1 and 2 are highly conserved, while the other AAA sites are less conserved. In fact, the residues within 4 Å of the bound nucleotide in AAA1 are identical between dynein 1 and 2.

human cytoplasmic dynein 2, sequence (Q8NCM8 1091-4307 limits assumed): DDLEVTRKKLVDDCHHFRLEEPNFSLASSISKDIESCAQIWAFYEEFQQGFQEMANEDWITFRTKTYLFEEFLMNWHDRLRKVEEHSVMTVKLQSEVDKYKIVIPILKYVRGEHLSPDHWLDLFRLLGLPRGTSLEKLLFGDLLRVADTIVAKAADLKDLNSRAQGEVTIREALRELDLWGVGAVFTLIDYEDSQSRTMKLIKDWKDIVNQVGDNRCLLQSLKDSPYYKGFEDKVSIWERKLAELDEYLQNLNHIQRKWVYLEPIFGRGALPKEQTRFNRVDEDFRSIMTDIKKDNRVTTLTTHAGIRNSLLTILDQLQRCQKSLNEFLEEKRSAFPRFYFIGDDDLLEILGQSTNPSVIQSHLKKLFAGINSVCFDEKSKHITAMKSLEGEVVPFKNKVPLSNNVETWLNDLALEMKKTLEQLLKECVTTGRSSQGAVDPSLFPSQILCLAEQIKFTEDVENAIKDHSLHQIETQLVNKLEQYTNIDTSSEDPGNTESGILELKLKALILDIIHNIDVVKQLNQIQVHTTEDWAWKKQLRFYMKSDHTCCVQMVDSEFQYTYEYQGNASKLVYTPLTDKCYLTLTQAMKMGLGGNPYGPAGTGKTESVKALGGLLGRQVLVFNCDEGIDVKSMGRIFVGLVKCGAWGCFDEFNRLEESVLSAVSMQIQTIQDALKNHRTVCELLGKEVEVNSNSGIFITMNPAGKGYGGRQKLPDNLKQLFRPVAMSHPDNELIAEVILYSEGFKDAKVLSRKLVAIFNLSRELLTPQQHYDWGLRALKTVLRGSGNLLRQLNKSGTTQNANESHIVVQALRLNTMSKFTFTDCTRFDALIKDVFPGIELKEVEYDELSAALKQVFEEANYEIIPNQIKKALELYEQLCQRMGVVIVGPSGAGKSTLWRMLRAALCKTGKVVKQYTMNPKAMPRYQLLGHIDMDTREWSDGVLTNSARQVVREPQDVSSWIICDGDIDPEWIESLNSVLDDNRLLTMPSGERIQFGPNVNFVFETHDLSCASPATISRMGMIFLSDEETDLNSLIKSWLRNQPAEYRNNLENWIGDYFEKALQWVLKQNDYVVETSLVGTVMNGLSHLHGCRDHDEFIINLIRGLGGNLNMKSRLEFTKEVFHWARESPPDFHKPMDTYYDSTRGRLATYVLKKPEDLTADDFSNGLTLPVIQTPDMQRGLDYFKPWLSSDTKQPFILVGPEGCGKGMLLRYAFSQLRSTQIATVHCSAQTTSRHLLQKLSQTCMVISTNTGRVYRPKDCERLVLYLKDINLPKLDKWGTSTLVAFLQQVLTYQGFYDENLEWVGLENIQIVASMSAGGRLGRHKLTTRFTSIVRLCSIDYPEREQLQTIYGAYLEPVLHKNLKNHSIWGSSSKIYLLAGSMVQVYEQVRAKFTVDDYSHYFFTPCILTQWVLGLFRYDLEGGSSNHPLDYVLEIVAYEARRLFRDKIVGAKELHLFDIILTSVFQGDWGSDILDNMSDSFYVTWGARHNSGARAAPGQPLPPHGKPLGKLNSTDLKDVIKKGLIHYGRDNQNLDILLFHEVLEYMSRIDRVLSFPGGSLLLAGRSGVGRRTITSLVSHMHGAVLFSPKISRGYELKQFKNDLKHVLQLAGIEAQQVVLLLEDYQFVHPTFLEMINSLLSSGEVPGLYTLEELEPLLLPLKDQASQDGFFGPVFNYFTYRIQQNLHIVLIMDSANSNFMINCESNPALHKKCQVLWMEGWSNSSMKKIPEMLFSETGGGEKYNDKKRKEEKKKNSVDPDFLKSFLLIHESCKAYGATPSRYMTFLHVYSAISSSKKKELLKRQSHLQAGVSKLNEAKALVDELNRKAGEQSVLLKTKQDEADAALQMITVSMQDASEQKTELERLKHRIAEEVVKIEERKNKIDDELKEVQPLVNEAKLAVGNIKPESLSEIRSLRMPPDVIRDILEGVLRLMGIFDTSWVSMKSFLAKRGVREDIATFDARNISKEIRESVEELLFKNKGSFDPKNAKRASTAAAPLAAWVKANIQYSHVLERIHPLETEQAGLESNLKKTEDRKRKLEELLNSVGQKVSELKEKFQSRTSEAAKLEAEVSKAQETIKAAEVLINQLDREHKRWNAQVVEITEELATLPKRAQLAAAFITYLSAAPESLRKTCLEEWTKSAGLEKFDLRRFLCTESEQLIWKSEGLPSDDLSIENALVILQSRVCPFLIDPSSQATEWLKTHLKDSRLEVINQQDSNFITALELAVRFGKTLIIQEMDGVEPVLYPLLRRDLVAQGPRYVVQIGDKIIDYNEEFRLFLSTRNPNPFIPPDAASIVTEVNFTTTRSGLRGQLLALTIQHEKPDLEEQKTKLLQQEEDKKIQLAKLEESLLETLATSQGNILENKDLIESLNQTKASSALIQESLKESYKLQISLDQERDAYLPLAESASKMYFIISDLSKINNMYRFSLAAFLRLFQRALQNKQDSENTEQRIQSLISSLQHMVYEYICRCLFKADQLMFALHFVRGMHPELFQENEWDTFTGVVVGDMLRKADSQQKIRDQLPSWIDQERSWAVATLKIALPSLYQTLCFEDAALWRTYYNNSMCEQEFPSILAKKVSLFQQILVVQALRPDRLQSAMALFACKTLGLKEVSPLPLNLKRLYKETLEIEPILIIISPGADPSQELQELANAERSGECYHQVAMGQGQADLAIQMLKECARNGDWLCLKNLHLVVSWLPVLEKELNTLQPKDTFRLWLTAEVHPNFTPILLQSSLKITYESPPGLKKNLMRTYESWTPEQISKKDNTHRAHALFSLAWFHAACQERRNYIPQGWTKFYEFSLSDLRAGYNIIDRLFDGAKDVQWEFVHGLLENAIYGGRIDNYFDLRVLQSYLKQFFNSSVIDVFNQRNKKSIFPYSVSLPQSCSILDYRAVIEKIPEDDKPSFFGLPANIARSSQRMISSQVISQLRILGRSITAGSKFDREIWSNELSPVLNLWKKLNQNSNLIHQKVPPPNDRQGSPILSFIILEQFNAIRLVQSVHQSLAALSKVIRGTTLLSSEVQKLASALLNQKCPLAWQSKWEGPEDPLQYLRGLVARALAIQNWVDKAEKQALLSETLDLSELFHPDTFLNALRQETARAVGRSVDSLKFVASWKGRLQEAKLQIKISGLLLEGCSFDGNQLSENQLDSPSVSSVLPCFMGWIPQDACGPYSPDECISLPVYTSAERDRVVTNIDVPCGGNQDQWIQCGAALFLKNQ

With `N#Cc1c(C2(c3ccc(Cl)cc3)CC2)nn2c1[nH]c(=O)c1cc(I)ccc12` [Example 5, 2-[1-(4-chlorophenyl)cyclopropyl]-7-iodo-5-oxo-4H-pyrazolo[1,5-a]quinazoline-3-carbonitrile], the IC50 – broadly, the midpoint of a concentration-inhibition curve – in assay [1] (Table 1, dose-dependent analysis of dynein 2-driven microtubule gliding, 1 mM MgATP) turned out to be 2.6 ± 1.3 µM; in assay [2] (SAG 500 nM, read-out: IC50, luciferase expression driven by Hedgehog pathway activity), 0.9 ± 0.5 µM; in assay [2] (Table 2, SAG 500 nM, 28-32 hr treatment, read-out: Shh-light IC50) it was 1.45 µM. Further, the Gliding velocity in assay [1] (dynein 2-driven microtubule gliding, test compounds at 20 pM (so in the source), 1 mM MgATP, 0.05 mg/mL casein, 2% DMSO, solvent control 126 ± 17) is listed as 6 ± 2 nm/s. The “reversibility of inhibition of dynein 2-dependent motility” value in assay [1] (washout) is “reversed following washout”. Moreover, the activity at 2 µM in assay [2] (2 μM compound, SAG 500 nM, read-out: SHH-light % residual @ 2 μM) was determined as 24.8%. In addition, the activity at 20 µM in assay [2] (20 μM compound, SAG 500 nM, read-out: SHH-light % residual @ 20 μM) was -5.2%. Besides, the “reversibility of inhibition of dynein 1-dependent microtubule gliding” value in assay [3] is given as “reversed following washout”. Also, in assay [4], the “inhibition of ATPase activity of AAA3 mutant dynein 1” value is on record as “inhibits”.
